Reference: patent US11969428B2, “Methods and pharmaceutical compositions for treating lymphoid malignancy” (priority 2011, dated 2024)

How the values were obtained:
Experiment in all cases: Ambit KinomeScan screening
Type in all cases: binding
Settings in all cases: CAL-130 10 μM
ADCK3 = target: T1, ADCK3 (Homo sapiens, UniProt Q8NI60)
T1 construct: purchased Ambit (KinomeScan screening)
Summary of the method: (§1)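 Each kinase, carrying a tag, was challenged to bind immobilized bait while CAL-130 was present (10 μM). Reported numbers are percent of the control signal, lower indicating tighter compound binding.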

ASK1 = target: T2, ASK1 (Homo sapiens, UniProt Q99683)
T2 construct: purchased Ambit (KinomeScan screening service)
Summary of the method: as §1

BRAF = target: T3, BRAF (Homo sapiens, UniProt P15056)
T3 construct: unspecified tag ("tagged kinases"); purchased Ambit (KinomeScan screening)
Summary of the method: as §1

BRAF(V600E) = target: T4, BRAF(V600E) (Homo sapiens, UniProt P15056, V600E)
T4 construct: unspecified tag ("tagged kinases"); purchased Ambit (KinomeScan screening)
Summary of the method: as §1

CAMK1G = target: T5, CAMK1G (Homo sapiens, UniProt Q96NX5)
T5 construct: unspecified tag ("tagged kinases"); purchased Ambit (KinomeScan screening)
Summary of the method: as §1

CDK3 = target: T6, CDK3 (Homo sapiens, UniProt Q00526)
T6 construct: purchased Ambit (KinomeScan screening)
Summary of the method: as §1

CDKL3 = target: T7, CDKL3 (Homo sapiens, UniProt Q8IVW4)
T7 construct: purchased Ambit (KinomeScan screening service)
Summary of the method: as §1

CLK4 = target: T8, CLK4 (Homo sapiens, UniProt Q9HAZ1)
T8 construct: purchased Ambit (KinomeScan screening service)
Summary of the method: as §1

CSK = target: T9, CSK (Homo sapiens, UniProt P41240)
T9 construct: purchased Ambit (KinomeScan screening service)
Summary of the method: as §1

DRAK1 = target: T10, DRAK1 (Homo sapiens, UniProt Q9UEE5)
T10 construct: unspecified tag ("tagged kinases"); purchased Ambit (KinomeScan screening service)
Summary of the method: as §1

EGFR(E746-A750DEL) = target: T11, EGFR(E746-A750DEL) (Homo sapiens, UniProt P00533, DEL746-750)
T11 construct: unspecified tag; purchased Ambit (KinomeScan screening service)
Summary of the method: as §1

[1] = target: T12, EGFR(L747-E749DEL, A750P) (Homo sapiens, UniProt P00533, A750P/DEL747-749)
T12 construct: unspecified tag; purchased Ambit (KinomeScan screening service)
Summary of the method: as §1

EGFR(L747-T751DEL, SINS) = target: T13, EGFR(L747-T751DEL, SINS) (Homo sapiens, UniProt P00533, DEL747-750/T751S)
T13 construct: unspecified tag; purchased Ambit (KinomeScan screening service)
Summary of the method: as §1

INSRR = target: T14, INSRR (Homo sapiens, UniProt P14616)
T14 construct: Ambit (KinomeScan screening)
Summary of the method: as §1

ITK = target: T15, ITK (Homo sapiens, UniProt Q08881)
T15 construct: purchased Ambit (KinomeScan screening)
Summary of the method: as §1

JAK3(JH1domain) = target: T16, JAK3(JH1domain) (Homo sapiens, UniProt P52333)
T16 construct: JAK3(JH1domain); purchased Ambit (KinomeScan screening)
Summary of the method: as §1

LATS1 = target: T17, LATS1 (Homo sapiens, UniProt O95835)
T17 construct: unspecified tag ('tagged kinases'); purchased Ambit (KinomeScan screening service)
Summary of the method: as §1

LZK = target: T18, LZK (Homo sapiens, UniProt O43283)
T18 construct: unspecified tag ('tagged kinases'); purchased Ambit (KinomeScan screening service)
Summary of the method: as §1

MAP4K3 = target: T19, MAP4K3 (Homo sapiens, UniProt Q8IVH8)
T19 construct: Ambit (KinomeScan screening)
Summary of the method: as §1

MELK = target: T20, MELK (Homo sapiens, UniProt Q14680)
T20 construct: purchased Ambit (KinomeScan screening)
Summary of the method: as §1

MUSK = target: T21, MUSK (Homo sapiens, UniProt O15146)
T21 construct: unspecified tag; purchased Ambit (KinomeScan screening panel)
Summary of the method: as §1

PAK4 = target: T22, PAK4 (Homo sapiens, UniProt O96013)
T22 construct: tag (kind not specified); purchased Ambit (KinomeScan screening service)
Summary of the method: as §1

PAK5 = test system: PAK5
Summary of the method: as §1

PIK3CD = target: T23, PIK3CD (Homo sapiens, UniProt O00329)
T23 construct: unspecified tag; purchased Ambit (KinomeScan screening panel)
Summary of the method: as §1

PIK3CG = target: T24, PIK3CG (Homo sapiens, UniProt P48736)
T24 construct: unspecified tag; purchased Ambit (KinomeScan screening panel)
Summary of the method: as §1

PKAC-α = target: T25, PKAC-α (Homo sapiens, UniProt P17612)
T25 construct: unspecified tag; purchased Ambit (KinomeScan screening panel)
Summary of the method: as §1

QSK = target: T26, QSK (Homo sapiens, UniProt Q9Y2K2)
T26 construct: tag (kind not specified); purchased Ambit (KinomeScan screening service)
Summary of the method: as §1

RIPK2 = target: T27, RIPK2 (Homo sapiens, UniProt O43353)
T27 construct: unspecified tag (tagged kinase); purchased Ambit (KinomeScan screening)
Summary of the method: as §1

SIK = target: T28, SIK (Homo sapiens, UniProt P57059)
T28 construct: tag, kind not specified; purchased Ambit (KinomeScan screening service)
Summary of the method: as §1

SNARK = target: T29, SNARK (Homo sapiens, UniProt Q9H093)
T29 construct: tag, kind not specified; purchased Ambit (KinomeScan screening service)
Summary of the method: as §1

SRPK3 = target: T30, SRPK3 (Homo sapiens, UniProt Q9UPE1)
T30 construct: purchased Ambit (KinomeScan screening service)
Summary of the method: as §1

SgK110 = target: T31, SgK110 (Homo sapiens, UniProt P0C264)
T31 construct: tag, kind not specified; purchased Ambit (KinomeScan screening service)
Summary of the method: as §1

TBK1 = target: T32, TBK1 (Homo sapiens, UniProt Q9UHD2)
T32 construct: tag (kind not specified); purchased Ambit (KinomeScan screening service)
Summary of the method: as §1

VEGFR2 = target: T33, VEGFR2 (Homo sapiens, UniProt P35968)
T33 construct: tag, kind not specified; purchased Ambit (KinomeScan screening service)
Summary of the method: as §1

T23 sequence (O00329 whole entry): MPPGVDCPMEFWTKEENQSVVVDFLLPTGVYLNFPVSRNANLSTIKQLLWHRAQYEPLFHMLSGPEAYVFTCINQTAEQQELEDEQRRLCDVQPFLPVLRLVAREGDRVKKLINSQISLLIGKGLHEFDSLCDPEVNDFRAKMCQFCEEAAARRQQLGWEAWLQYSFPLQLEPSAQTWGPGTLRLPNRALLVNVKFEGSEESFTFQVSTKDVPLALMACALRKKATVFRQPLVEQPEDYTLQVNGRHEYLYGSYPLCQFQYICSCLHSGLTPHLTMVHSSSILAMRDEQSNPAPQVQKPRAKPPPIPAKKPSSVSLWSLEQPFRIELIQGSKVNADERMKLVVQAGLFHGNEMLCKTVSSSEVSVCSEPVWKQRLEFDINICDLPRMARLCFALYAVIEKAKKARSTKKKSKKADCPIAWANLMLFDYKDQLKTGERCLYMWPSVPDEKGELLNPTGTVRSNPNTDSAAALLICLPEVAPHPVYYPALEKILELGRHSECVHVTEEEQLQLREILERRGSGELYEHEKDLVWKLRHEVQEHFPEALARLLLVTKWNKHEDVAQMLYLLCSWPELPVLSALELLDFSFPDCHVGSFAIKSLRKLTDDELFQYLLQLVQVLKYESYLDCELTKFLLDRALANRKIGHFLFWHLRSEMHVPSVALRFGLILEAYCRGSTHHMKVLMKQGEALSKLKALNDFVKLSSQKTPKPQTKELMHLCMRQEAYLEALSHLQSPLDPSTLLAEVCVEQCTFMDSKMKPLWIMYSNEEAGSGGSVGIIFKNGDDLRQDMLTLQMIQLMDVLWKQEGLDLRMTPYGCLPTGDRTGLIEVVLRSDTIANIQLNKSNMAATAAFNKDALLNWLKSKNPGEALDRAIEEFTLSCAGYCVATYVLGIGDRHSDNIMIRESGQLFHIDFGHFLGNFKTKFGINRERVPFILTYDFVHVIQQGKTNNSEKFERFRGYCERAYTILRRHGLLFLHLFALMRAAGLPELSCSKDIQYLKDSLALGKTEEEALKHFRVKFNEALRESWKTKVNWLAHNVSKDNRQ
T24 sequence (P48736 whole entry): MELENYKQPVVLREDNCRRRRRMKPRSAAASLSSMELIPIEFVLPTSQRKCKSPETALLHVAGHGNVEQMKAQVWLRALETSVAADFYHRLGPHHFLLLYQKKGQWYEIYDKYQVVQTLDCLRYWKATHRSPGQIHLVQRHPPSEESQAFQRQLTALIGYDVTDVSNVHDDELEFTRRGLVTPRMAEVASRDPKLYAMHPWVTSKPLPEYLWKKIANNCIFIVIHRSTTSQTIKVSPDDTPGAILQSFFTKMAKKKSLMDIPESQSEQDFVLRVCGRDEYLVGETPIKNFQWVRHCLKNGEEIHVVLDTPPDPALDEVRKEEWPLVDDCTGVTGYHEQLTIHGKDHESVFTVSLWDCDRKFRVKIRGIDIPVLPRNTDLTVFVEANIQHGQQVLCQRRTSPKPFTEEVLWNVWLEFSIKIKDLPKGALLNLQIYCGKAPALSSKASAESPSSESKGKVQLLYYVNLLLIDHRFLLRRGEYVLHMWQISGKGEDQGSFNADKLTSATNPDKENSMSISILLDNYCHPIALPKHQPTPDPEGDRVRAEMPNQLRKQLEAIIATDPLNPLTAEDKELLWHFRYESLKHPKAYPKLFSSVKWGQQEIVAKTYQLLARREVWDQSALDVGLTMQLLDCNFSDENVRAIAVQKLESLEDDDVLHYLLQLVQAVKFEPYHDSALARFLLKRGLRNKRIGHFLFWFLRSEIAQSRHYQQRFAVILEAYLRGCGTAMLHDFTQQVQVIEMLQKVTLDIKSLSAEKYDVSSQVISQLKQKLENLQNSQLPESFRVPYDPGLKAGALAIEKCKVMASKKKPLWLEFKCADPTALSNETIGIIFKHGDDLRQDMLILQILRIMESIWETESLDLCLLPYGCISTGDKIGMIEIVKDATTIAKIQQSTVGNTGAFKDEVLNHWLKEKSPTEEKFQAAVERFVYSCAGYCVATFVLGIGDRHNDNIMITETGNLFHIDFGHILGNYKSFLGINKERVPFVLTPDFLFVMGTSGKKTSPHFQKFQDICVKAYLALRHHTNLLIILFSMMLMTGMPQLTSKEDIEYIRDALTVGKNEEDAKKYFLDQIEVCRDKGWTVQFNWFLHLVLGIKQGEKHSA
T5 sequence (Q96NX5 whole entry): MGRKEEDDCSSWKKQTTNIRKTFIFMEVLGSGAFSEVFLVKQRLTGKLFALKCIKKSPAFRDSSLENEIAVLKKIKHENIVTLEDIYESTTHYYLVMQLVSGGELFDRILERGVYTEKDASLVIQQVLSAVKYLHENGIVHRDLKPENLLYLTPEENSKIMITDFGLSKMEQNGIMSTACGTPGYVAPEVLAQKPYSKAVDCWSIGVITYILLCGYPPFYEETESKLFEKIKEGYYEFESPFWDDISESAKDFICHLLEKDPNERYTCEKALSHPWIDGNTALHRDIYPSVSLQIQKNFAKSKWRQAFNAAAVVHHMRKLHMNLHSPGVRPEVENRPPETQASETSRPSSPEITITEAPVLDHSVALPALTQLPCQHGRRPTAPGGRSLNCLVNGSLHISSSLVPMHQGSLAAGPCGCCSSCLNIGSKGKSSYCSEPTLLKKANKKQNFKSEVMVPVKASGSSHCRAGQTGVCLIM
T4 sequence (P15056 whole entry V600E): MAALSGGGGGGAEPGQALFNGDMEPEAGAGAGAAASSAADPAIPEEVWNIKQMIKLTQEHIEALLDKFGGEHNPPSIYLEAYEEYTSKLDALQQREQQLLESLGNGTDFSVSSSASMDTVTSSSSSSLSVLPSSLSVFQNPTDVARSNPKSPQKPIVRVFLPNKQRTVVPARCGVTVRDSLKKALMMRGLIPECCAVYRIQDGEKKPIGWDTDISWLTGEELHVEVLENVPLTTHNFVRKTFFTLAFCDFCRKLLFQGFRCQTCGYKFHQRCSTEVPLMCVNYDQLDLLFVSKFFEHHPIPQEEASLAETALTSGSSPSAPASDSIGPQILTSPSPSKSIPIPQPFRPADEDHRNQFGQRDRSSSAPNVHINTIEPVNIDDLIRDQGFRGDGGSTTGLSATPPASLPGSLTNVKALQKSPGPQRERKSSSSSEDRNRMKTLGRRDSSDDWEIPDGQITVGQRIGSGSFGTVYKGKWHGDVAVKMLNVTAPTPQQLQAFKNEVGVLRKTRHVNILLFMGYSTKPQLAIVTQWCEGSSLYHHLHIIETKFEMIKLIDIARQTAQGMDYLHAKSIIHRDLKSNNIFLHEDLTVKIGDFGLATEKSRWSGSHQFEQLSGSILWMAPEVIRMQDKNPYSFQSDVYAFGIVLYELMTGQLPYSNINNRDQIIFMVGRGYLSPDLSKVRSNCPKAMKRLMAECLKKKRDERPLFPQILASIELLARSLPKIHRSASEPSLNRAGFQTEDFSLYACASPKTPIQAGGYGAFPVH
T14 sequence (P14616 27-1297): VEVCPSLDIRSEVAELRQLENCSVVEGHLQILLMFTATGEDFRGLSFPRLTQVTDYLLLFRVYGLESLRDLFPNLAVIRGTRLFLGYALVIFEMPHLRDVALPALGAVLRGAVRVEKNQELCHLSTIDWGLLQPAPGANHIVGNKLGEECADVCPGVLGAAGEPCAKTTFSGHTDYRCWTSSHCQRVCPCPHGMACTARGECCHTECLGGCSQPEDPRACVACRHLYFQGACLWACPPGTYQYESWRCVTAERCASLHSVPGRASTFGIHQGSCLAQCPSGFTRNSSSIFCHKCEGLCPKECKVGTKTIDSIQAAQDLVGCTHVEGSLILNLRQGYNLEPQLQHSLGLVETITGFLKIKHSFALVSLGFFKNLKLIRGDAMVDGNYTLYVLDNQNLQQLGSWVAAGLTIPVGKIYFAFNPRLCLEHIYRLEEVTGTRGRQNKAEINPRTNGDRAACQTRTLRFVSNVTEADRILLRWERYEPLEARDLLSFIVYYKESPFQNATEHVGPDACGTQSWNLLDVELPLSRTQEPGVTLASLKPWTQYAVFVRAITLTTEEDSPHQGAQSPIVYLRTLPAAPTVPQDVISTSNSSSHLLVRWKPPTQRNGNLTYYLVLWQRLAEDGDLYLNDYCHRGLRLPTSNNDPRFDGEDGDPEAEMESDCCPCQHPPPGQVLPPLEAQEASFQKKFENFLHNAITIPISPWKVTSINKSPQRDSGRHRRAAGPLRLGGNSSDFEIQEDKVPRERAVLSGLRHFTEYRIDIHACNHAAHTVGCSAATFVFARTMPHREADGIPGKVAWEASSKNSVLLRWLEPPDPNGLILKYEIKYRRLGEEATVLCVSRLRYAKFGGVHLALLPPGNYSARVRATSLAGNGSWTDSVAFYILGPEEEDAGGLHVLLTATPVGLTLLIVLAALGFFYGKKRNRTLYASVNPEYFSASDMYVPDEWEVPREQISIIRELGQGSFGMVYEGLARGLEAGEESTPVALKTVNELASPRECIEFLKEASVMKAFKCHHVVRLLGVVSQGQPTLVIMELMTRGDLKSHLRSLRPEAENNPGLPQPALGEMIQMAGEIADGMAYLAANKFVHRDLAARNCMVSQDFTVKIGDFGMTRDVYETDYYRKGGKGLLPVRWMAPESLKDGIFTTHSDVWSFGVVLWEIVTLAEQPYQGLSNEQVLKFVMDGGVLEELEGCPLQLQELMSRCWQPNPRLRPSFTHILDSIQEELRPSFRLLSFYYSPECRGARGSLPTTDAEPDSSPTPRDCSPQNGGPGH
T16 sequence (P52333 822-1111 limits assumed): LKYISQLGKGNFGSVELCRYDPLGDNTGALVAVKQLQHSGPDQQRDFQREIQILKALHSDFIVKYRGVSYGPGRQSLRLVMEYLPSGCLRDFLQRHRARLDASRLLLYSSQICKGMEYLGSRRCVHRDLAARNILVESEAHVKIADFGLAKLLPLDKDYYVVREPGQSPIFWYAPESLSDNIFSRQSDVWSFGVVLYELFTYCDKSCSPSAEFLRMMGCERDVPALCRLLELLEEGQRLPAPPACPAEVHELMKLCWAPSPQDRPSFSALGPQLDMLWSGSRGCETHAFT
T3 sequence (P15056 whole entry): as the sequence (P15056 whole entry V600E) above, with E600V counted along it

## Cc1ccccc1-n1c(C(C)Nc2nc(N)nc3nc[nH]c23)nc2cccc(C)c2c1=O (stereo not drawn) [CAL-130]
ADCK3
  Percent of Control Binding: 100%
ASK1
  Percent of Control Binding: 100%
BRAF
  Percent of Control Binding: 100%
BRAF(V600E)
  Percent of Control Binding: 100%
CAMK1G
  Percent of Control Binding: 100%
CDK3
  Percent of Control Binding: 100%
CDKL3
  Percent of Control Binding: 100%
CLK4
  Percent of Control Binding: 100%
CSK
  Percent of Control Binding: 100%
DRAK1
  Percent of Control Binding: 100%
EGFR(E746-A750DEL)
  Percent of Control Binding: 100%
[1]
  Percent of Control Binding: 100%
EGFR(L747-T751DEL, SINS)
  Percent of Control Binding: 100%
INSRR
  Percent of Control Binding: 100%
ITK
  Percent of Control Binding: 100%
JAK3(JH1domain)
  Percent of Control Binding: 100%
LATS1
  Percent of Control Binding: 100%
LZK
  Percent of Control Binding: 100%
MAP4K3
  Percent of Control Binding: 100%
MELK
  Percent of Control Binding: 100%
MUSK
  Percent of Control Binding: 100%
PAK4
  Percent of Control Binding: 100%
PAK5
  Percent of Control Binding: 100%
PIK3CD; PI3KCD (Table 2)
  Percent of Control Binding: 0.1%
PIK3CD; PIK3CD / PI3Kδ (Table 1)
  Percent of Control Binding: 0.2%
PIK3CG; PI3KCG (Table 2)
  Percent of Control Binding: 1.2%
PIK3CG; PIK3CG / PI3Kγ (Table 1)
  Percent of Control Binding: 10%
PKAC-α
  Percent of Control Binding: 100%
QSK
  Percent of Control Binding: 100%
RIPK2
  Percent of Control Binding: 100%
SIK
  Percent of Control Binding: 100%
SNARK
  Percent of Control Binding: 100%
SRPK3
  Percent of Control Binding: 100%
SgK110
  Percent of Control Binding: 100%
TBK1
  Percent of Control Binding: 100%
VEGFR2
  Percent of Control Binding: 100%
